# According to ChEMBL document CHEMBL4311976, “Design, synthesis and biological evaluation of novel 7H-pyrrolo[2,3-d]pyrimidine derivatives as potential FAK inhibitors and anticancer agents” (Eur J Med Chem, 2019):
# pIC50: −log10 of the molar value.
# Columns and labels:
# [1] = Half life in mouse liver microsomes at 1 uM measured up to 1 hr by LC-MS/MS analysis; format: ADME, Microsome
# A549 [2] = test: Induction of apoptosis in human A549 cells assessed as late apoptotic cells at 1 uM after 72 hrs by Annexin V-FITC/propidium iodide staining-based flow cytometric analysis (reference value: 1.24%); format: functional
# A549 [3] = test: Induction of apoptosis in human A549 cells assessed as necrotic cells at 9 uM after 72 hrs by Annexin V-FITC/propidium iodide staining-based flow cytometric analysis (reference value: 1.70%); format: functional
# CYP2C19 = CYP2C19 (Homo sapiens, UniProt P33261); test: Inhibition of CYP2C19 in human pooled liver microsomes at 10 uM using S-mephenytoin as substrate preincubated for 10 mins followed by NADPH addition and measured after 15 mins by LC/MS/MS analysis relative to control; format: ADME; details: probe S-mephenytoin
# Chain of CYP2C19 (P33261 whole entry): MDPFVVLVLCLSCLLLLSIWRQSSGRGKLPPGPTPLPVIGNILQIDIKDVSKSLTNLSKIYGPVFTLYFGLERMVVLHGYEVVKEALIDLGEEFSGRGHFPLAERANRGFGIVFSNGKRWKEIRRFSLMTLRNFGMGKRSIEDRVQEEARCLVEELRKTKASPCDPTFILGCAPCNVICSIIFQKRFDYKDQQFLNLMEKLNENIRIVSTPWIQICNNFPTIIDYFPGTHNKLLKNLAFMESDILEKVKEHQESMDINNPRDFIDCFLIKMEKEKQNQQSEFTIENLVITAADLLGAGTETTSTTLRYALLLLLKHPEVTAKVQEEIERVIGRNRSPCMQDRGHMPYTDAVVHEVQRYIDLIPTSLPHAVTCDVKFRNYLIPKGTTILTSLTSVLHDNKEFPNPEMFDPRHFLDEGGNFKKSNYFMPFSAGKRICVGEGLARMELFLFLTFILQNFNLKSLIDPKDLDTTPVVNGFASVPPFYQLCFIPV
# A549 [4] = test: cells; details: Homo sapiens, A549, 72 h
# Description: Antiproliferative activity against human A549 cells assessed as reduction in cell viability after 72 hrs by MTT assay
# [5] = biological target: Serine/threonine-protein kinase PLK1 (Homo sapiens) (UniProt P53350); test: Inhibition of recombinant full length His-tagged human PLK1 expressed in baculovirus expression system at 0.5 uM using Ser/Thr 16 as substrate in presence of ATP at Km concentration after 1 hr by Z'-LYTE assay relative to control
# Chain of Serine/threonine-protein kinase PLK1 (Homo sapiens) (P53350 whole entry, the tested form may be a part): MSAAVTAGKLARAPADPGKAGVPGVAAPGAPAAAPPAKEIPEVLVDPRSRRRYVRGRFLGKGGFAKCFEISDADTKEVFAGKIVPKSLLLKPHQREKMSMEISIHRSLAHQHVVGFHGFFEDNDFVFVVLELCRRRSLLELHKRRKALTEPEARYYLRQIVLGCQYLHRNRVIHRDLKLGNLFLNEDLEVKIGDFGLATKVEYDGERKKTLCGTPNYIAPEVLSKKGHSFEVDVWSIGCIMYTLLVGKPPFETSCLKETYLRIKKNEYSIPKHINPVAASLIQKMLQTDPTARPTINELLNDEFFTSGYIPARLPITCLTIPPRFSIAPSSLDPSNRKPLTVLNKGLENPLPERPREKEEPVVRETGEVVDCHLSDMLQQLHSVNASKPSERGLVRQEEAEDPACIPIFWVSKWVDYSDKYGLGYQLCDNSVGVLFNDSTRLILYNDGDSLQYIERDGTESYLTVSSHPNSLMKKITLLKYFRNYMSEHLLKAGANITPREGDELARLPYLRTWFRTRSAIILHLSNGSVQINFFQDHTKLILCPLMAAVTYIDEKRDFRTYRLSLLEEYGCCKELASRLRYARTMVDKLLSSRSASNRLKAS
# [6] = biological target: ALK tyrosine kinase receptor (Homo sapiens) (UniProt Q9UM73); test: Inhibition of recombinant human GST-tagged ALK (1058 to 1620 residues) expressed in baculovirus at 0.5 uM using tyr 01 as substrate as substrate in presence of ATP at Km concentration after 1 hr by Z'-LYTE assay relative to control
# Chain of ALK tyrosine kinase receptor (Homo sapiens) (Q9UM73 19-1620 limits assumed): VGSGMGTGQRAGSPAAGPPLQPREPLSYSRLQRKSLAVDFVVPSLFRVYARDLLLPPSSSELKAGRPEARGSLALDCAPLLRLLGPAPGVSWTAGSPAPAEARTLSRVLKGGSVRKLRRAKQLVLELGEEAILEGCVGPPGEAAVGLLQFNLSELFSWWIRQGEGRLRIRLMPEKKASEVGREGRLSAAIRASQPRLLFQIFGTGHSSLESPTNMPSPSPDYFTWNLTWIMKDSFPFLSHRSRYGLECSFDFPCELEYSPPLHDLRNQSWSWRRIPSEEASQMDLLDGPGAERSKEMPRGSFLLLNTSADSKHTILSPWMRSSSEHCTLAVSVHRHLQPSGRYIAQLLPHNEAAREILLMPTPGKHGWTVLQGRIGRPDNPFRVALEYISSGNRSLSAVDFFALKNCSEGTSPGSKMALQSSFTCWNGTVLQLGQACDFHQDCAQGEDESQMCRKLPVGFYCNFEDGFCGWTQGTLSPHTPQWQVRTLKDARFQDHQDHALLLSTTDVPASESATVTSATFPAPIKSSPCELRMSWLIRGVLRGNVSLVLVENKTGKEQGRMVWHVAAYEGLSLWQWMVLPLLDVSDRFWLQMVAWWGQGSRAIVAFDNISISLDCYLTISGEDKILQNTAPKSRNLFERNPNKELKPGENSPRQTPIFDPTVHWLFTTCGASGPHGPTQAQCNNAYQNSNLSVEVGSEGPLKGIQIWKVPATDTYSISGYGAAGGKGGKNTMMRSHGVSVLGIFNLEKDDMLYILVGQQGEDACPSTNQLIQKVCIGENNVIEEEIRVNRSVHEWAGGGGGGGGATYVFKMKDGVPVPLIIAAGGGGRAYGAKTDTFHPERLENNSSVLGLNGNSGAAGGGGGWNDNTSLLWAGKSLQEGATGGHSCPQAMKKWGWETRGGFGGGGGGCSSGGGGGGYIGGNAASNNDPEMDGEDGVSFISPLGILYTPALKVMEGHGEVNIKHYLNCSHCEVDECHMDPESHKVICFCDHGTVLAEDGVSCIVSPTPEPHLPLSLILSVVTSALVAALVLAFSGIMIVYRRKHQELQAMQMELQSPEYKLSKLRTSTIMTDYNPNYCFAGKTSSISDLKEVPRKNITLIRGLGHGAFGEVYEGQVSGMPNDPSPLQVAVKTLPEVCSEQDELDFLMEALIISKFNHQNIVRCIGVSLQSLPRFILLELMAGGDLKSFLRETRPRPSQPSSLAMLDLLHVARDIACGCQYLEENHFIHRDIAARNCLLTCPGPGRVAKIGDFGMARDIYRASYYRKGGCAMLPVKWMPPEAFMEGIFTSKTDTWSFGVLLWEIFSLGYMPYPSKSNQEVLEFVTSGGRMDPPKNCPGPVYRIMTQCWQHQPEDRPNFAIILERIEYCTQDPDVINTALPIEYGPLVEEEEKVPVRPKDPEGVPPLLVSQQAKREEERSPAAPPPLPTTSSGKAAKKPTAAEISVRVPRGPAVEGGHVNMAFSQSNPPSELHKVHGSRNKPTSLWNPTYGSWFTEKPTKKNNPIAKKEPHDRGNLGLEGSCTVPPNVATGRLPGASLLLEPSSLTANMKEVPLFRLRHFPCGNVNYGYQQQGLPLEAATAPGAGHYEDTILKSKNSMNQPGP
# [7] = biological target: Tyrosine-protein kinase ABL1 (Homo sapiens) (UniProt P00519); test: Inhibition of full-length His-tagged human ABL1 expressed in baculovirus expression system at 0.5 uM using tyr 02 as substrate in presence of ATP at Km concentration after 1 hr by Z'-LYTE assay relative to control
# [8] = biological target: Macrophage colony-stimulating factor 1 receptor (Homo sapiens) (UniProt P07333); test: Inhibition of recombinant His-tagged human CSF1R cytoplasmic domain expressed in baculovirus expression system at 0.5 uM using tyr 01 as substrate in presence of ATP at Km concentration after 1 hr by Z'-LYTE assay relative to control
# [9] = biological target: Mitogen-activated protein kinase 1 (Homo sapiens) (UniProt P28482); test: Inhibition of recombinant full length GST-tagged human ERK2 expressed in Escherichia coli at 0.5 uM using Ser/Thr 03 as substrate in presence of ATP at Km concentration after 1 hr by Z'-LYTE assay relative to control
# A549 [10] = test: Induction of apoptosis in human A549 cells assessed as early apoptotic cells at 9 uM after 72 hrs by Annexin V-FITC/propidium iodide staining-based flow cytometric analysis (reference value: 2.40%); format: functional
# CYP1A2 = CYP1A2 (Homo sapiens, UniProt P05177); test: Inhibition of CYP1A2 in human pooled liver microsomes at 10 uM using phenacetin as substrate preincubated for 10 mins followed by NADPH addition and measured after 15 mins by LC/MS/MS analysis relative to control; format: ADME; details: probe phenacetin
# Chain of CYP1A2 (P05177 whole entry): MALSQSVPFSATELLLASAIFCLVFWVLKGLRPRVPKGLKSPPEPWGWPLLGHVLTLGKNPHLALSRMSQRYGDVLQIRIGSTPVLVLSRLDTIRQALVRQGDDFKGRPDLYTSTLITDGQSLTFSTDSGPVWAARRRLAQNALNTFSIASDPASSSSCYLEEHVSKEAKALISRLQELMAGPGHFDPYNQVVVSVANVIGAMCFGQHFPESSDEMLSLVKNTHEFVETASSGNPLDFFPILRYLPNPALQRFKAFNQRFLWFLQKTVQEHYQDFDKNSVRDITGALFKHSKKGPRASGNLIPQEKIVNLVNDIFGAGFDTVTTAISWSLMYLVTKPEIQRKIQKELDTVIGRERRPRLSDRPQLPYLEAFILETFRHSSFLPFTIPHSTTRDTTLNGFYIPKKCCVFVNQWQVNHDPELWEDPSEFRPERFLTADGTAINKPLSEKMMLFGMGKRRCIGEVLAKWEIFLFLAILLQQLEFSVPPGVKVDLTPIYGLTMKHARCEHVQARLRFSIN
# [11] = biological target: Serine/threonine-protein kinase TBK1 (Homo sapiens) (UniProt Q9UHD2); test: Inhibition of recombinant full length GST-tagged human TBK1 expressed in insect cells at 0.5 uM using Ser/Thr 05 as substrate in presence of ATP at Km concentration after 1 hr by Z'-LYTE assay relative to control
# Chain of Serine/threonine-protein kinase TBK1 (Homo sapiens) (Q9UHD2 whole entry): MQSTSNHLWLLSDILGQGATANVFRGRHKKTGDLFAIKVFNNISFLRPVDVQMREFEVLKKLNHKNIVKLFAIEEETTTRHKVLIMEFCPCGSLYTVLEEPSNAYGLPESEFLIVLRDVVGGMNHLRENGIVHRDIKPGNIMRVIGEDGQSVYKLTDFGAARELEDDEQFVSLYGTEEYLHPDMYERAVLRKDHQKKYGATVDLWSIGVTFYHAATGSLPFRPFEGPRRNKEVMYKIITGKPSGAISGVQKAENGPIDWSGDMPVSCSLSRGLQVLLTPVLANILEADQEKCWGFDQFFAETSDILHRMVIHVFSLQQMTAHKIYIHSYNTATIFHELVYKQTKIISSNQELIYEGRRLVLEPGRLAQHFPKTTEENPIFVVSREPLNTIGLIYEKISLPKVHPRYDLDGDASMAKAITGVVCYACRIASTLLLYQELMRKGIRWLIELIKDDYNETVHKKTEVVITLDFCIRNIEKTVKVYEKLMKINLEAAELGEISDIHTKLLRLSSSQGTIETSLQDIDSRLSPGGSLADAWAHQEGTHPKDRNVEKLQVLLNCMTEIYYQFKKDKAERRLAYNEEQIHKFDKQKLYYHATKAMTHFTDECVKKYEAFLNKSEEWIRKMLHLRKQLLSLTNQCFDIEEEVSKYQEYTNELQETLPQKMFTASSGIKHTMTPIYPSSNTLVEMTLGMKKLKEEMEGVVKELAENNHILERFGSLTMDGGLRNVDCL
# [12] = Intrinsic clearance in mouse liver at 1 uM measured up to 1 hr in presence of NADPH by LC-MS/MS analysis; format: ADME, tissue-based
# [13] = Intrinsic clearance in human liver microsomes at 1 uM measured up to 1 hr in presence of NADPH by LC-MS/MS analysis; format: ADME, Microsome; details: read-out: CLH
# [14] = Metabolic stability in human liver microsomes assessed as compound remaining at 1 uM measured up to 1 hr in presence of NADPH by LC-MS/MS analysis; format: ADME, Microsome; details: read-out: Stability
# [15] = biological target: Serine/threonine-protein kinase B-raf (Homo sapiens) (UniProt P15056); test: Inhibition of full length GST-tagged human BRAF expressed in baculovirus expression system at 0.5 uM using Ser/Thr 03 as substrate in presence of 100 uM ATP after 1 hr by Z'-LYTE assay relative to control
# CYP2D6 = CYP2D6 (Homo sapiens, UniProt P10635); test: Inhibition of CYP2D6 in human pooled liver microsomes at 10 uM using dextromethorphan as substrate preincubated for 10 mins followed by NADPH addition and measured after 15 mins by LC/MS/MS analysis relative to control; format: ADME; details: probe dextromethorphan
# [16] = Intrinsic clearance in human liver at 1 uM measured up to 1 hr in presence of NADPH by LC-MS/MS analysis; format: ADME, tissue-based
# [17] = Metabolic stability in rat liver microsomes assessed as compound remaining at 1 uM measured up to 1 hr in presence of NADPH by LC-MS/MS analysis; format: ADME, Microsome; details: read-out: Stability
# [18] = Intrinsic clearance in mouse liver microsomes at 1 uM measured up to 1 hr in presence of NADPH by LC-MS/MS analysis; format: ADME, Microsome; details: read-out: CLH
# [19] = Half life in human liver microsomes at 1 uM measured up to 1 hr by LC-MS/MS analysis; format: ADME, Microsome
# Focal adhesion kinase 1 [20] = biological target: T1, Focal adhesion kinase 1 (Homo sapiens, UniProt Q05397); test: Inhibition of recombinant N-terminal GST-tagged human FAK (327 to 1052 residues) expressed in baculovirus expression system using TK as substrate incubated for 50 mins in presence of ATP and measured after 1 hr by HTRF assay
# Target sequence in this assay (Q05397 whole entry, the tested form may be a part): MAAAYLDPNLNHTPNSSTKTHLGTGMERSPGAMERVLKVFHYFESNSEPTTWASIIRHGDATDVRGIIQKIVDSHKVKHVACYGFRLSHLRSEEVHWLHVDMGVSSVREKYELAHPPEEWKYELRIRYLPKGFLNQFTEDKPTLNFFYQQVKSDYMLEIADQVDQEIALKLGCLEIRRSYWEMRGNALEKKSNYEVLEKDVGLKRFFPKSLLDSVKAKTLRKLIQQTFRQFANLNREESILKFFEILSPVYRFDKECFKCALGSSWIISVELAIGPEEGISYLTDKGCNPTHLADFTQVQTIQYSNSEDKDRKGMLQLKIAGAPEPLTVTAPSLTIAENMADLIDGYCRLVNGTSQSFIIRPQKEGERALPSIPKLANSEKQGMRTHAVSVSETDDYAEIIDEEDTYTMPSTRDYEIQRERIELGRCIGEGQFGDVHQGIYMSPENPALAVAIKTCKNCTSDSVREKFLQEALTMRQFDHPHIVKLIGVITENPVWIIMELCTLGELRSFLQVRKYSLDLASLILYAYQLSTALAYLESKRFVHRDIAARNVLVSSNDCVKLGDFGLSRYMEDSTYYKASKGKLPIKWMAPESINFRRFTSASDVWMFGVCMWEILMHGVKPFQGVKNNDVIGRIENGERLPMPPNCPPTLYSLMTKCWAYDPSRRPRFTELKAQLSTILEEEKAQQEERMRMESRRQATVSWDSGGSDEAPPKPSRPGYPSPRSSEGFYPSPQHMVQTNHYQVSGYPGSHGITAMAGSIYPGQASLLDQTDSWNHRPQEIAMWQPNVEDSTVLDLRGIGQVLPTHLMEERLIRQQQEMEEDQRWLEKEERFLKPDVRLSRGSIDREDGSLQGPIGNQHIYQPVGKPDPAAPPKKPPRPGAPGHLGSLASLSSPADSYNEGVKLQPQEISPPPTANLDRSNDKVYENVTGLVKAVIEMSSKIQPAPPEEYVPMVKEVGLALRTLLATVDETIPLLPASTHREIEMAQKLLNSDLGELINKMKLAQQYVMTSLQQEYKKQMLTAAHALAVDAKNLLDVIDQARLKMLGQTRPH
# [21] = Intrinsic clearance in rat liver at 1 uM measured up to 1 hr in presence of NADPH by LC-MS/MS analysis; format: ADME, tissue-based
# A549 [22] = test: Induction of apoptosis in human A549 cells assessed as viable cells at 1 uM after 72 hrs by Annexin V-FITC/propidium iodide staining-based flow cytometric analysis (reference value: 94.66%); format: functional; details: A549, 72 h, read-out: Activity
# Focal adhesion kinase 1 [23] = biological target: T1, Focal adhesion kinase 1; test: Inhibition of recombinant full length GST-tagged human FAK cytoplasmic domain expressed in baculovirus expression system at 0.5 uM using tyr 07 as substrate in presence of ATP at Km concentration after 1 hr by Z'-LYTE assay relative to control
# A549 [24] = test: Induction of apoptosis in human A549 cells assessed as viable cells at 9 uM after 72 hrs by Annexin V-FITC/propidium iodide staining-based flow cytometric analysis (reference value: 94.66%); format: functional; details: A549, 72 h, read-out: Activity
# [25] = biological target: Serine/threonine-protein kinase Chk1 (Homo sapiens) (UniProt O14757); test: Inhibition of recombinant full-legth His-tagged human CHK1 expressed in baculovirus expression system at 0.5 uM using Ser/Thr 19 as substrate in presence of ATP at Km concentration after 1 hr by Z'-LYTE assay relative to control
smiles,measurement,setting,value
COc1cc(C(=O)NC2CCNCC2)ccc1Nc1nc(Nc2ccccc2P(C)(C)=O)c2cc[nH]c2n1,half-life at 1 µM,[1],2.29 h
same,Activity,A549 [2],9.62%
same,Activity,A549 [3],4.15%
same,"inhibition at 0.25 h, 10 µM",CYP2C19,4.9%
same,pIC50,A549 [4],5.49
same,inhibition,[5],43%
same,inhibition,[6],98%
same,inhibition,[7],5%
same,inhibition,[8],12%
same,inhibition,[9],9%
same,Activity,A549 [10],30.12%
same,"inhibition at 0.25 h, 10 µM",CYP1A2,1.5%
same,inhibition,[11],23%
same,CLH,[12],39.9 mL/min/kg
same,microsomal CLint at 1 µM,[13],12.9 µL/min/mg
same,"remaining at 1 h, 1 µM",[14],67.9%
same,inhibition,[15],3%
same,"inhibition at 0.25 h, 10 µM",CYP2D6,10.7%
same,CLH,[16],11.6 mL/min/kg
same,"remaining at 1 h, 1 µM",[17],80.7%
same,microsomal CLint at 1 µM,[18],10.1 µL/min/mg
same,half-life at 1 µM,[19],1.79 h
same,pIC50,Focal adhesion kinase 1 [20],8.27
same,CLH,[21],< 17.3 mL/min/kg
same,viability at 1 µM,A549 [22],70.7%
same,inhibition,Focal adhesion kinase 1 [23],100%
same,viability at 9 µM,A549 [24],29.1%
same,inhibition,[25],3%
